US20200253877A1, “GEMCABENE, PHARMACEUTICALLY ACCEPTABLE SALTS THEREOF, COMPOSITIONS THEREOF AND METHODS OF USE THEREFOR” (NEUROBO PHARMACEUTICALS, INC., priority 2018, published 2020)

How the values were obtained:
[1] = Integrated analysis of efficacy from completed clinical studies: LDL-C; format: in vivo, human; conditions: inclusive of all background therapies
Text: Gemcabene calcium salt hydrate Crystal Form 1 given on top of steady-state statins has shown a statin-intensity dependent effect. […] Statins inhibit cholesterol synthesis and upregulate LDL receptor expression to effect LDL-C reduction.

[2] = Stability study of gemcabene calcium salt forms (XRPD form, HPLC/CAD purity); format: physicochemical
Protocol: The stability studies were carried out using storage conditions at a) 40° C. and 75% relative humidity (RH), b) at 80° C. and c) at ambient temperature (approximately 22° C.). After 7 days and 14 days, the samples were removed from the relevant storage conditions and initially analyzed by XRPD to identify any form changes. The samples were then analyzed by HPLC/CAD (high-performance liquid chromatography equipped with a charged aerosol detector) for purity, with all solid purity values given on a w/w % basis.

[3] = Effect of steady-state gemcabene 600 mg on single-dose pharmacokinetics of ON 1/35 (ethinyl estradiol/norethindrone) in healthy female subjects; format: in vivo, human; conditions: 600 mg daily at steady state; single dose ON 1/35
Protocol: An open-label, two-sequence, cross-over study to assess the steady-state effects of gemcabene calcium on the single-dose pharmacokinetics (PK) of oral contraceptive tablets in healthy female subjects was conducted with 300 mg tablets containing gemcabene calcium salt hydrate Crystal Form 1 having PSD90 of 52 μm (film-coated Tablet F).
The population for this study was generally healthy, adult female subjects of childbearing potential (≥18 to ≤35 years of age). This population supports the overall objective of the study to evaluate the effect of 600 mg of gemcabene calcium salt hydrate Crystal Form 1 having PSD90 of 52 μm at steady-state on the PK of a single dose of ON 1/35 (Ortho Novum 1/35; combined ethinyl estradiol/norethindrone oral contraceptive). The primary objective of this study was to assess the effect of daily 600 mg of gemcabene calcium salt hydrate Crystal Form 1 having PSD90 of 52 μm at steady-state on the pharmacokinetics (PK) of ON 1/35. The secondary objectives of this study were to assess the safety and tolerability of daily gemcabene 600 mg in combination with a single-dose ON 1/35 and to assess the steady-state PK of 600 mg of gemcabene calcium salt hydrate Crystal Form 1 having PSD90 of 52 μm (film-coated Tablet F×2). […]

CC(C)(CCCCOCCCCC(C)(C)C(=O)O)C(=O)O.[Ca] [6-(5-Carboxy-5-methyl-hexyloxy)-2,2-dimethylhexanoic acid calcium]
mean LDL-C reduction [1]: about 21% | change in form (XRPD) ([2]; 2-week study, 40° C./75% RH, 80° C. and ambient): No change in the form | Form (XRPD) ([2]; 40° C./75% RH, 1 Week): Form 1 | Purity ([2]; 40° C./75% RH, 1 Week): 80.8% | Form (XRPD) ([2]; 40° C./75% RH, 2 Weeks): Form 1 | Purity ([2]; 40° C./75% RH, 2 Weeks): 84.2% | Form (XRPD) ([2]; 80° C., 1 Week): Form 1 | Purity ([2]; 80° C., 1 Week): 80.6% | Form (XRPD) ([2]; 80° C., 2 Weeks): Form 1 | Purity ([2]; 80° C., 2 Weeks): 83.9% | Form (XRPD) ([2]; Ambient, 1 Week): Form 1 | Purity ([2]; Ambient, 1 Week): 80.7% | Form (XRPD) ([2]; Ambient, 2 Weeks): Form 1 | Purity ([2]; Ambient, 2 Weeks): 84.6% | purity (HPLC/CAD) compared to the starting form ([2]; after 2 weeks storage, all 3 storage conditions): drop in purity | Starting Purity ([2]; before storage, HPLC/CAD, w/w %): 87.5% | drug-drug interaction with ethinyl estradiol and norethindrone [3]: mild drug-drug interaction
